Experimental data published in ChEMBL document CHEMBL1201862, “PubChem BioAssay data set” (2004).
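96-well plates; 48 h exposure; 5 concentrations. Endpoints by linear interpolation between flanking doses. Not reached: highest tested concentration assigned. GI50: concentration for 50% inhibition of growth.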 Activity calls are given as the source filed them. Cut-off read from the data, not from the text of the source: active = GI50 up to about 1.1 µM and inactive = higher.

What was measured:
Assay in all cases: growth of human tumour cells (NCI), 48 h
RXF 393 = test system: RXF 393
HOP-62 = test system: HOP-62
NCI-H522 = test system: NCI-H522
SK-MEL-28 = test system: SK-MEL-28
KM12 = test system: KM12
SW-620 = test system: SW-620
NCI-H226 = test system: NCI-H226
OVCAR-3 = test system: OVCAR-3
MDA-N = test system: MDA-N
SF-268 = test system: SF-268
NCI-H460 = test system: NCI-H460
OVCAR-8 = test system: OVCAR-8
EKVX = test system: EKVX
HCT-116 = test system: HCT-116
CAKI-1 = test system: CAKI-1
OVCAR-5 = test system: OVCAR-5
MDA-MB-231 = test system: MDA-MB-231
ACHN = test system: ACHN
SK-MEL-5 = test system: SK-MEL-5
M14 = test system: M14

| SMILES | GI50 (RXF 393) | GI50 (HOP-62) | GI50 (NCI-H522) | GI50 (SK-MEL-28) | GI50 (KM12) | GI50 (SW-620) | GI50 (NCI-H226) | GI50 (OVCAR-3) | GI50 (MDA-N) | GI50 (SF-268) | GI50 (NCI-H460) | GI50 (OVCAR-8) | GI50 (EKVX) | GI50 (HCT-116) | GI50 (CAKI-1) | GI50 (OVCAR-5) | GI50 (MDA-MB-231) | GI50 (ACHN) | GI50 (SK-MEL-5) | GI50 (M14) |
| --- | --- | --- | --- | --- | --- | --- | --- | --- | --- | --- | --- | --- | --- | --- | --- | --- | --- | --- | --- | --- |
| CC(O)CC(=O)CO[C@H]1[C@H](O)[C@@H](O)[C@@H](O)[C@@H]2NC(=O)c3c(cc4c(c3O)OCO4)[C@H]21 (stereo not given in full) | 0.0208 µM (active) | 0.0289 µM (active) | 0.0242 µM (active) | < 0.0201 µM (active) | 0.0316 µM (active) | 0.109 µM (active) | 0.0499 µM (active) | 0.0457 µM (active) | 0.0366 µM (active) | 0.0222 µM (active) | 0.0275 µM (active) | 0.0332 µM (active) | 0.0266 µM (active) | 0.0264 µM (active) | 0.512 µM (active) | 0.0711 µM (active) | 0.054 µM (active) | 0.0391 µM (active) | 0.0137 µM (active) | 0.0361 µM (active) |
| COc1ccc(-c2cc(-c3ccccc3)nc(/N=C\c3ccccc3)n2)c(O)c1 | > 100 µM (inactive) | > 57.7 µM (inactive) | 3.33 µM (inactive) | > 100 µM (inactive) | 5.9 µM (inactive) | 8 µM (inactive) | > 100 µM (inactive) | > 52.2 µM (inactive) | 5.02 µM (inactive) | > 93.5 µM (inactive) | 6.81 µM (inactive) | > 70.1 µM (inactive) | > 26.4 µM (inactive) | > 26.6 µM (inactive) | 3.02 µM (inactive) | > 100 µM (inactive) | > 31.3 µM (inactive) | 6.47 µM (inactive) | 7.05 µM (inactive) | > 100 µM (inactive) |
| CCOP(=O)(OCC)OC1c2[nH]cc(C(=O)OCc3ccccc3)c2-c2cc(C(=O)OC)[nH]c2C1OC (stereo not given) | 8.18 µM (inactive) | 7.76 µM (inactive) | 6.53 µM (inactive) | 4.94 µM (inactive) | 7.96 µM (inactive) | 14.5 µM (inactive) | 16.1 µM (inactive) | 11.2 µM (inactive) | 17.5 µM (inactive) | 12.5 µM (inactive) | 4.55 µM (inactive) | 12.8 µM (inactive) | 5.94 µM (inactive) | 6.4 µM (inactive) | 20.2 µM (inactive) | 37 µM (inactive) | 2.91 µM (inactive) | 4.66 µM (inactive) | 7.46 µM (inactive) | 9.08 µM (inactive) |
| CCCCn1c2c(n(CCCC)c1=[Se])-c1c(n(CCCC)c(=[Se])n1CCCC)S[Se][Se]S2 | 21.8 µM (inactive) | 13.7 µM (inactive) | 1.61 µM (inactive) | 39.1 µM (inactive) | 27.2 µM (inactive) | 6.01 µM (inactive) | 6.52 µM (inactive) | 6.95 µM (inactive) | 33.7 µM (inactive) | 32.7 µM (inactive) | 7.6 µM (inactive) | 16.9 µM (inactive) | 38.5 µM (inactive) | 22.8 µM (inactive) | 5.3 µM (inactive) | 20.7 µM (inactive) | 14.5 µM (inactive) | 12 µM (inactive) | 16.6 µM (inactive) | 25.6 µM (inactive) |
| O=C1c2cc(Cc3ccccc3)c(=O)c(Cc3ccccc3)cc2C(=O)c2cc(Cc3ccccc3)c(=O)c(Cc3ccccc3)cc21 | 24.4 µM (inactive) | > 100 µM (inactive) | > 100 µM (inactive) | > 100 µM (inactive) | > 100 µM (inactive) | > 100 µM (inactive) | > 100 µM (inactive) | > 100 µM (inactive) | > 100 µM (inactive) | > 100 µM (inactive) | > 100 µM (inactive) | > 100 µM (inactive) | > 100 µM (inactive) | > 100 µM (inactive) | > 100 µM (inactive) | > 100 µM (inactive) | > 100 µM (inactive) | > 100 µM (inactive) | > 100 µM (inactive) | > 100 µM (inactive) |
